# Test results as given in patent publication US20190241943A1, “RAPID PHENOTYPING AND IDENTIFICATION OF MICROBES FROM A COMPLEX MICROBIAL COMMUNITY” (Duke University, priority 2018, published 2019).
# How the values were obtained:
# [1] = tested on: B. thetaiotamicron (ATCC strain 29148); assay: Droplet monoculture growth on different carbon sources in defined medium (MicDrop); assay type: cell-based, Bacteroides thetaiotaomicron; settings: for growth of the isolate in droplets compared to control defined medium without carbon source: B. theta isolate, defined medium with a single carbon source, endpoint DNA quantity (FIG. 4); for growth in droplets on carbohydrate (growth / no growth): B. thetaiotaomicron ATCC 29148 in microfluidic droplets, consistent with 96-well plates (FIG. 4)
# Experimental: By using a defined media, a function of individual bacteria (in this case growth on a substrate of interest) can be determined. Bacteria were isolated from a fecal community of a healthy donor and cultured in defined medium. To identify carbon sources on which an individual isolated bacterium can grow, carbon sources of varying complexity were added individually to the defined media. Growth was measured at the endpoint, and the DNA was extracted, sequenced and quantified by qPCR as provided in Example 2. In this assay, the endpoint growth of an individual bacteria cultured in a defined medium with the addition of one carbon source was compared to the end point growth measurement of the same bacteria in the defined medium with only the addition of water. (FIG. 4). This comparison enables assessing the ability of an individual microbe to use a single carbon source for growth. As an example in FIG. 4, an isolate of the bacterial strain B. thetaiotamicron (ATCC® strain 29148) was cultured in droplets with defined medium containing the carbon source Pullalan, Levan, Lamanarin or no carbon source (control), and growth was compared. (FIG. 4). […] (FIG. 4). […] (FIG. 5).
# (A) Microbial communities isolated from human stool samples were examined for carbon consumption in a custom microfluidic screen. Cells were restarted from frozen stock in mGAM (as above) and then minimal medium containing glucose and galactose (SIGMA®) as the sole carbon sources. Following determination of the loading concentration, the cell culture stocks were washed twice by centrifugation and resuspended in 2× minimal medium. Cells were filtered using a 50 μm filter (CELLTRICS®, SYSMEX®) to remove multi-cell clumps. The filtered cells suspension was then added to each sample formulation at the target concentration. Each sample was a 50:50 mixture of 1% carbon solution and 2× minimal medium. To prevent chip fouling, the oil inlet was equipped with 10 μm inline filters (P-276, IDEX®). Droplet generation in the anaerobic chamber was monitored using a bright field microscope (44347, CELESTRON®). Droplet cultures were stored 5 mL polypropylene tubes (352063, FALCON®) with the caps closed in an anaerobic incubator at 37° C. Following the second day of incubation, cultures were moved to a −20° C. freezer for storage prior to DNA extraction. Pre-processing of the droplet data designated samples with qPCR values below the mean no-carbon control as zero growth. Then, relative abundance data was converted to absolute abundance by multiplying each sample by the corresponding qPCR value. The median was then calculated across three replicate samples and matched no-carbon controls were subtracted from each sample. Finally, a growth threshold of 88% of maximum growth was applied, as determined from validation analysis (FIG. 15, Validation of prebiotic utilization assays)
# To test whether the MicDrop method could be used to assay bacterial prebiotic metabolism (FIG. 12A), a previously characterized type strain Bacteroides thetaiotaomicron ATCC 29148 was loaded into microfluidic droplets and standard 96-well plates. Consistent with both prior studies and well-plate experiments disclosed herein, B. thetaiotaomicron ATCC 29148 grew in droplets on pullulan and levan, but not on lamanarin or a no carbohydrate control (FIG. 4). […] Using 96-well plate experiments as a reference (FIG. 12B, FIG. 18), the accuracy of the MicDrop prebiotic assay was determined to be 87% (Table 8). […]
# gut bacteria = assay: Xenobiotic growth screen of gut bacteria for beta-glucuronidases in droplets; assay type: cell-based, human gut bacteria; settings: defined media, glucose positive control, water negative control (FIG. 6)
# Source text: Thus, in certain aspects of this disclosure, the methods of the invention can be used to identify or screen bacteria from the gut that can utilize, and thus inactivate, specific xenobiotic compounds. In certain embodiments of this aspect, the methods of the invention can be used to screen gut bacteria for beta-glucuronidases, which are present in bacteria that can inactivate certain man-made therapeutics. […] (FIG. 6). […] Thus, in some embodiments, the present disclosure provides for identification of bacterial taxa that contain putative beta-glucuronidases. Using the method disclosed herein, bacteria are isolated by encapsulation in droplets of defined media with or without a specific xenobiotic. DNA is sampled from the encapsulated droplets at one or more set time points during incubation, and absolute growth is then computed as previously disclosed herein. […] To determine gut bacterial strain response to xenobiotics, gut bacteria were screened for beta-glucuronidases, which are present in bacteria that can inactivate certain man-made therapeutics. […] (FIG. 6). […] Thus, the assay identified bacterial taxa that contain putative beta-glucuronidases. Glucose and water are positive and negative controls, respectively. (FIG. 6).
Compound,growth of the isolate in droplets compared to control defined medium without carbon source [1],growth in droplets on carbohydrate (growth / no growth) [1],bacterial growth on substrate (gut bacteria)
pullulan [Pullalan],greater growth,grew,
"O=C(O)[C@H]1O[C@@H](Oc2ccc([N+](=O)[O-])cc2)[C@H](O)[C@@H](O)[C@@H]1O [PNPG, 4-Nitrophenyl-Beta-D-glucuronic acid, reference compound]",,,bacterial growth
lamanarin,the same or slightly worse,,
levan,greater growth,grew,
O=C[C@H](O)[C@@H](O)[C@H](O)[C@H](O)C(=O)O [glucuronic acid],,,bacterial growth
